Here are results for two compounds from US5498624A, “Selected pyrazolyl derivatives” (Monsanto Company, priority 1995, dated 1996).

Structures are written as SMILES.

Assay type in all cases: in vivo
One assay concerns Wheat Leaf Rust. The experiment in a line: Wheat Leaf Rust Foliar Assay (WLR Prot). Conditions: 20 ppm foliar protectant. The protocol: A) Pathogen/Inoculum Production--Urediospores of previously infected plants are collected using a small vacuum device and stored in glass vials at -2° C. Just before inoculation the requisite number of vials are warmed and the spores suspended in Soltrol, a light machine oil.
(B) Host Propagation, (C) Compound Preparation and (D) Compound Application follow as per Example 1.
E) Inoculation/Incubation--To inoculate the plants, the urediospore/Soltrol suspension, adjusted to 5×10^4 spores/ml, is applied in a light coating to the foliage, and the plants are placed in a mist tent for 12 to 18 hours at 20° C. in the dark. The test can then be returned to the previous growing conditions until foliar symptoms are evident and the plants can be assessed.
F) Test Evaluation--About 7 days after the plants are removed from the mist tent, the rust lesions should be evident. Three leaves in each pot (replicate) are assessed for percent infection. Phytotoxicity and growth effects are also noted at this time.
G) Data--Follows as per Example 1.

For the next assay, the system named is Uncinula necator. The experiment in a line: Vine Powdery Mildew Foliar Assay (VPM Prot). Conditions: vine seedlings. The protocol:
A) Pathogen/Inoculum--Vine powdery mildew, caused by Uncinula necator, is an obligate parasite and must be maintained on a living host. Seedling leaves (2-5 leaf stage) of Vitis vinifera var. Carignane, are inoculated by brushing them with the leaves of infected plants. Incubation environment is the same as that described for incubation (Sec. D).
B) Host Propagation- Approximately 60 gm of seed are removed from cold storage and soaked in water for 2-3 days with frequent (3 or more) water changes each day. They are then combined with 24 gm of vermiculite and 30 ml of distilled water and put into refrigeration for 4-5 weeks. After this `vernalization` period, they are planted, 3 seeds/pot, into individual 2.25" pots filled with a commercial potting mix. The pots are watered well, and placed into a growth chamber set at 24° C., 85% RH and a 12 hour photoperiod at 200-300 me/m^2 /sec. The seedlings are thinned to one seedling/pot approximately 14 days after planting. After four to five additional days, seedlings are moved to the greenhouse. Plants are ready for assay 4-6 weeks after planting.
C) Test Compound Preparation
1) Experimental compounds--A final formulation of each of the compounds of the present invention in 20% acetone, 0.1% Tween®20 and 79.9% water is foliarly applied to the seedling vines at about 1.5 mls/pot (4 pots/treatment) using a DeVilbiss 152 sprayer at the rate of 100, 20 and 10 ppm. The seedlings have 2-4 true leaves at application. Treated pots are allowed to dry in a vented room and are then moved to the inoculation growth chamber (see Sec. D for settings).
2) Controls and standards--The commercial product RALLY=NOVA (myclobutanil)is used as an internal standard. Formulated myclobutanil 40 WP is applied at 100 and 20 ppm in water. Also included in the test is an inoculated control treatment (a water/acetone formulation blank).
D) Inoculation/Incubation--Treated vines are inoculated 24 hours after chemical application. Several diseased leaves are removed from inoculum production plants and are very gently brushed on the leaves of the test plants. This gentle contact and agitation allows spores to be dislodged from diseased leaves and fall onto test plant leaves.
The inoculation/incubation growth chamber is set at 24° C., 85% RH, and 12 hour photoperiod at 350 me/m^2 /sec.
E) Evaluation--The test is rated 7-9 days after inoculation or upon maximum disease expression. Percent area infected with disease is determined for each replicate. Treatment means are calculated and percent disease control is determined by the formula "(control mean--treatment mean) * 100 / control mean". The untreated/inoculated control treatment is used for this calculation. […]

In another assay the test system is Venturia inaequalis. The experiment in a line: Apple Scab Foliar Assay (ASC Prot). Conditions: apple seedlings. On the procedure: A) Host Propagation--Apple, var. McIntosh, are collected form trees in the field and stored in a cold room at 4° C. After a minimum of 60 days storage, seed are collected and germinated in vermiculite in 3 inch pots in a growth chamber set at 27° C. day and 23° C. night temperature. When seedlings have emerged and 2-3 true leaves formed, the seedling are transplanted into 4 inch square pots containing a soil medium consisting of commercial potting mix. Seedlings are grown in this medium to the 8-10 leaf stage for use in tests. Before each test, the petiole of the smallest unfolded leaf is marked, with this leaf and the immediate five older leaves sprayed and inoculated in the test. The petiole of the oldest sprayed and inoculated leaf is also marked. The marking facilitates data collection for specific leaves and identification of the application site.
B) Test Compound Preparation--Compounds of the present invention are applied to the upper and lower leaf surfaces of the identified leaves at the rate of 100 and 20 ppm using a DiVilbiss Model 152 hand sprayer. Four plants per treatment are sprayed with 12 mls of spray solution which contains 40% acetone, 59.9% water, and 0.1% Triton B1956. Nova® (myclobutanil) is used as the commercial standard. It is suspended in water and applied at equivalent rates.
C) Pathogen/Inoculum Production--Inoculum from the apple scab pathogen, Venturia inaequalis, is obtained directly by washing conidia off of scab lesions from leaves on apple seedlings or by use of previously collected conidial suspension that has been frozen in a glass vial at -80° C. Conidial suspension concentration is adjusted to approximately 1×10^5 spores/ml by dilution with a solution of 1% v/v V8 juice/water. […]
D) Test Evaluation--Phytotoxicity data, and leaf burning, etc. is collected by treatment at the time of pathogen inoculation and at disease evaluation. Disease is evaluated on day 8-12 by estimating the amount of treated leaf tissue that is covered by apple scab lesions or symptoms. […] The percentage control is calculated as in the above examples.

Take `C[C@H]1CCC[C@H](c2ccccc2NC(=O)c2cn(C)nc2C(F)F)C1` (relative stereo) [Number 3, 1H-pyrazole-4-carboxamide, 3-(difluoromethyl)-1-methyl-N-[2-(3-methylcyclohexyl)phenyl]-, trans-]: the “WLR Prot percent disease control” value in the assay with Wheat Leaf Rust was 100%. Further, the “VPM Prot percent disease control” value in the assay on Uncinula necator (10 ppm foliar protectant) was 34%; in the assay with Uncinula necator (20 ppm foliar protectant) it was 51%. Further, the “ASC Prot percentage control” value in the assay with Venturia inaequalis (20 ppm foliar protectant) worked out at 90%.
As to `C[C@@H]1CCC[C@H](c2ccccc2NC(=O)c2cn(C)nc2C(F)F)C1` (relative stereo) [Number 2, 1H-pyrazole-4-carboxamide, 3-(difluoromethyl)-1-methyl-N-[2-(-3-methylcyclohexyl)phenyl]-, cis-], the “WLR Prot percent disease control” value in the assay on Wheat Leaf Rust came out at 96%. In addition, the “VPM Prot percent disease control” value with Uncinula necator (20 ppm foliar protectant) worked out at 76%; with Uncinula necator (100 ppm foliar protectant), 91%. The “ASC Prot percentage control” value worked out at 58% in the assay on Venturia inaequalis (20 ppm foliar protectant) and 99% in the assay on Venturia inaequalis (100 ppm foliar protectant).
